From patent US20110281744A1, “METHOD OF IDENTIFYING COMPOUNDS THAT MODULATE REGULATION OF IRON RESPONSE ELEMENTS” (priority 2007, published 2011)
Read-outs that look alike come from different tables or passages of the source. Ends that are not written are not given here.

Experiments:
[1] = tested on: actin mRNA; assay: Polysome analysis with northern blot: actin mRNA translation in treated cultured cells (control); type: cell-based; details: cells treated overnight with iron or iron plus desferal; FIG. 1B left panel
Protocol: (§1) FIG. 1A top panel is a graph showing polysome analysis with optical density as a function of percent sucrose. Total RNA is isolated from cultured cells by lysing the cells in polysome extraction buffer (15 mM Tris, pH 7.6, 0.3 M NaCl, 15 mM MgCl2 and 1% Triton X-100) containing 100 ng/ml cyclohexamide and 1 mg/ml heparin. The lysates are then layered onto a 10-50% sucrose gradient and centrifuged at 38,000 rpm for 2 hrs. The gradients are fractionated by monitoring UV absorbance at 254 nm.
(§2) FIG. 1A bottom panel is a northern blot showing Actin and Ferratin RNA. RNA was isolated from each fraction using RNeasy 96 Universal Tissue Kit (Qiagen) then loaded on a agarose gel and subjected to northern analysis with the appropriate probe. The high molecular weight fractions (6-12) represent those for which protein synthesis is occurring.
(§3) FIG. 1B are northern blots showing the indicated RNA. Cells were treated overnight with either iron oriron plus desferal to chelate iron and RNA was isolated and analyzed as described above.

[2] = tested on: ferritin mRNA; assay: Polysome analysis with northern blot: ferritin mRNA translation in treated cultured cells; type: cell-based; details: cells treated overnight with iron or iron plus desferal; FIG. 1B right panel
Protocol: as §1, §2, §3

[3] = tested on: iron uptake; details: through reduction in IRE(+) DMT1 mRNA; cited from earlier work
[4] = tested on: DMT1; details: cited from earlier work
[5] = tested on: TfR; details: melanoma cells; cited from earlier work
[6] = tested on: melanoma cells; details: cited from earlier work
[7] = tested on: IRP; details: curcumin treatment; cited from earlier work
[8] = tested on: TfR; details: curcumin treatment; cited from earlier work
[9] = tested on: ferritin; details: curcumin treatment; cited from earlier work

Which results are given for `CC(=O)N(O)CCCCCNC(=O)CCC(=O)N(O)CCCCCNC(=O)CCC(=O)N(O)CCCCCN` [desferal]?
effect on translation of actin mRNA [1]: neither iron nor deseferal treatment had an effect; effect on ferritin translation (polysome distribution of ferritin mRNA) [2]: inhibits translation

Which results are given for “hepcidin (DTHFPICIFCCGCCHRSKCGMCCKT; ends and bridges not checked; cysteine pairing not given here; UniProt P81172 60-84, looked up) [a naturally occurring peptide]”?
iron uptake [3]: significantly reduce iron uptake; DMT1 protein isoforms with or without IRE [4]: reduces DMT1 protein isoforms containing the IRE, but not those lacking the IRE

With `O=C1O[C@H]([C@@H](O)CO)C([O-])=C1O.[Na+]` [sodium ascorbate, Sodium ascorbate] as the compound, how does the TfR level [5] read?
Its TfR level is “reduction in TfR”.

And the “cell death (apoptosis)” value [6]?
The value was “apoptosis”.

And the intracellular iron [6]?
Its intracellular iron is “reduced intracellular iron”.

Which “effect on translation of actin mRNA” value [1] does the source give for `[Fe]` [iron] here?
Its value is “neither iron nor deseferal treatment had an effect”.

And the “effect on ferritin translation (polysome distribution of ferritin mRNA)” value [2]?
Its value is “ferritin translation increases”.

Which IRP activation [7] does the source give for `COc1cc(/C=C/C(=O)CC(=O)/C=C/c2ccc(O)c(OC)c2)ccc1O` [curcumin, Curcumin] here?
Its IRP activation is “increased IRP activation”.

And the TfR level [8]?
Its TfR level is “increase in TfR”.

And the ferritin level [9]?
The ferritin level was “decrease in ferritin”.
